Nc1cccnc1
solubility (mole fraction)
Conditions | 283.15 K | 288.15 K | 293.15 K | 298.15 K | 303.15 K | 308.15 K | 313.15 K | 318.15 K | 323.15 K
in ethanol | 0.438 | 0.476 | 0.518 | 0.566 | 0.612 | 0.66 | 0.71 | 0.764 | 0.821
in toluene | 0.0297 | 0.0427 | 0.0646 | 0.0971 | 0.152 | 0.223 | 0.313 | 0.418 | 0.546

Source: BigSolDB 2.1
